Source: ChEMBL document CHEMBL3739260, “Substituted 4-hydroxy-1,2,3-triazoles: synthesis, characterization and first drug design applications through bioisosteric modulation and scaffold hopping approaches” (Medchemcomm, 2015)
Values belong to the compound of their own block, whether it stands above or below them.

How the values were obtained:
[1] = Dissociation constant, pKa of the compound; format: physicochemical
Chitinase = target: T1, Chitinase (Onchocerca volvulus, UniProt Q25615); test: Inhibition of Onchocerca volvulus chitinase by fluorescence based assay
T1 sequence (Q25615 whole entry): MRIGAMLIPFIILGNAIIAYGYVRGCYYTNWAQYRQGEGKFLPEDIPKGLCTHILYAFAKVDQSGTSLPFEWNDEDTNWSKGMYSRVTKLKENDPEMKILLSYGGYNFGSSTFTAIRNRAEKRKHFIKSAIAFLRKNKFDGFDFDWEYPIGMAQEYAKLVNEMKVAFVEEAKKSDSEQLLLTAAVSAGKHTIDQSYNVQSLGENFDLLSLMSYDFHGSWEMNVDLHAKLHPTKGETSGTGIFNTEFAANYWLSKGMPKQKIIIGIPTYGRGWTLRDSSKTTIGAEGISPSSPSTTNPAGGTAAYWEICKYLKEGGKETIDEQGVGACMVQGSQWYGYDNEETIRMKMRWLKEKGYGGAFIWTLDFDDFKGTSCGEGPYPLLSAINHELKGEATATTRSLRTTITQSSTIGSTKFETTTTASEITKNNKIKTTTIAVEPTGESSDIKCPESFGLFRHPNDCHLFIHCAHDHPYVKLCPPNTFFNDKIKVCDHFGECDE

[2] = Displacement of [3H]KA from Kainate receptor in rat cortical synaptosomes; format: subcellular
[3] = Displacement of [3H]AMPA from AMPA receptor in rat cortical synaptosomes; format: subcellular
Glutamate NMDA receptor = test: Displacement of [3H]CGP39653 from NMDA receptor in rat cortical synaptosomes; format: subcellular

SMILES: Cn1nnc(O)c1C(=O)Nc1ccc(Oc2ccccc2)cc1
IC50 (Chitinase): 4.69 µM

SMILES: O=C(Nc1ccc(Oc2ccccc2)cc1)c1c(O)nnn1CC1CCCCC1
IC50 (Chitinase): 5.11 µM

SMILES: O=C(Nc1ccc(Oc2ccccc2)cc1)c1nn(Cc2ccccc2)nc1OCc1ccccc1
IC50 (Chitinase): 0.41 µM

SMILES: O=C(Nc1ccc(Oc2ccccc2)cc1)c1c(OCc2ccccc2)nnn1Cc1ccccc1
IC50 (Chitinase): 0.41 µM

SMILES: O=C(Nc1ccc(Oc2ccccc2)cc1)c1c(OCc2ccccc2)nnn1CC1CCCCC1
IC50 (Chitinase): 0.52 µM

SMILES: N[C@@H](Cc1nsnc1O)C(=O)O
IC50 [2]: > 100 µM
IC50 [3]: 0.065 µM
Ki (Glutamate NMDA receptor): > 100 µM

SMILES: Cn1nc(O)c(CC(N)C(=O)O)n1 (racemic)
IC50 [2]: > 100 µM
Ki (Glutamate NMDA receptor): > 100 µM

SMILES: Cn1nnc(O)c1CC(N)C(=O)O (racemic)
pKa [1]: 6.42
IC50 [2]: > 100 µM
IC50 [3]: 1.4 µM
Ki (Glutamate NMDA receptor): > 100 µM

SMILES: N[C@@H](CCC(=O)O)C(=O)O [GLUTAMIC ACID]
pKa [1]: 4.2

Results, then the compound that gave them:

pKa [1]: 6.21
SMILES: CCOC(=O)c1nnn(C)c1O

pKa [1]: 5.54
SMILES: CCOC(=O)c1c(O)nnn1C

pKa [1]: 5.14
SMILES: CCOC(=O)c1nn(C)nc1O

pKa [1]: 3.24
SMILES: CCOC(=O)c1nonc1O

pKa [1]: 6.71
SMILES: CCOC(=O)c1cn(C)nc1O

pKa [1]: 6.22
SMILES: CCOC(=O)c1nnn(Cc2ccccc2)c1O

pKa [1]: 5.38
SMILES: CCOC(=O)c1c(O)nnn1Cc1ccccc1

pKa [1]: 5.14
SMILES: CCOC(=O)c1nn(Cc2ccccc2)nc1O

pKa [1]: 4.21
SMILES: CCOC(=O)c1nsnc1O
